MIC50 and MCC50 data for 12 molecules are collected here from ChEMBL document CHEMBL1133908, “Novel 3-(2-adamantyl)pyrrolidines with potent activity against influenza A virus-identification of aminoadamantane derivatives bearing two pharmacophoric amine groups” (2001).

Experiment [1] concerns MDCK. As to the kind of experiment: Minimum inhibitory concentration required to reduce influenza A H3N2 (X31) virus induced cytopathogenicity by 50% in madin-Darby canine kidney cells (MDCK). In kind it is functional. Particulars: Canis lupus familiaris.
In experiment [2] the test system is MDCK. As to the kind of experiment: Minimum inhibitory concentration required to reduce influenza A H2N2 virus induced cytopathogenicity by 50% in madin-Darby canine kidney cells (MDCK). In kind it is functional. To be noted: Canis lupus familiaris.
For experiment [3], the system named is MDCK. As to the kind of experiment: Minimum cytotoxic concentration required to cause a microscopically detectable alteration of normal cell morphology in madin-Darby canine kidney cells (MDCK). The experiment is classed as functional, Canis lupus familiaris.

≈ marks a conversion by molar mass, not a printed value.

As for `CCCN1CCC(C2C3CC4CC(C3)CC2C4)C1` (stereo unspecified), the MIC50 in experiment [1] and in experiment [2] was more than 28.2 µM each time. Besides, in experiment [3], the MCC50 came out at 140.9 µM.
`CN1CCC(C2C3CC4CC(C3)CC2C4)C1` (stereo unspecified): the MIC50 in experiment [1] and in experiment [2] was 18.8 µM (≈ 4.12 µg/mL) throughout. The molecule also showed an MCC50 in experiment [3] of more than 156.4 µM.
As to `CCN1CCC(C2C3CC4CC(C3)CC2C4)C1` (stereo unspecified), the MIC50 in experiment [1] and in experiment [2] was more than 29.7 µM each time. Further, the MCC50 in experiment [3] was 148.2 µM.
Turning to `CCN(CC)CCN1CCC(C2C3CC4CC(C3)CC2C4)C1=O` (stereo unspecified), the MIC50 in experiment [1] and in experiment [2] was 11.1 µM (≈ 3.54 µg/mL) throughout. In experiment [3], this molecule registered an MCC50 of 92 µM.
`CN(C)CCN1CCC(C2C3CC4CC(C3)CC2C4)C1=O` (stereo unspecified): the MIC50 in experiment [1] and in experiment [2] was 14.7 µM (≈ 4.27 µg/mL) throughout. This molecule also gave an MCC50 in experiment [3] of 122.4 µM.
Take `C1CC(C2C3CC4CC(C3)CC2C4)CN1` (stereo unspecified): the MIC50 in experiment [1] came out at 5 µM (≈ 1.03 µg/mL); in experiment [2], 0.6 µM (≈ 0.123 µg/mL). This molecule also returned an MCC50 in experiment [3] of 124.4 µM.
Turning to `C1CCN(CCN2CCC(C3C4CC5CC(C4)CC3C5)C2)CC1` (stereo unspecified), the MIC50 in experiment [1] came out at 0.35 µM (≈ 0.111 µg/mL); in experiment [2] it was 1.7 µM (≈ 0.538 µg/mL). This molecule also registered an MCC50 in experiment [3] of 14.6 µM.
Regarding `CCN(CC)CCN1CCC(C2C3CC4CC(C3)CC2C4)C1` (stereo unspecified), the MIC50 in experiment [1] is more than 14.9 µM; in experiment [2], 8.9 µM (≈ 2.71 µg/mL). Moreover, in experiment [3], the MCC50 is 74.5 µM.
With `CCCCN1CCC(C2C3CC4CC(C3)CC2C4)C1` (stereo unspecified), the MIC50 in experiment [1] and in experiment [2] was more than 26.9 µM each time. This molecule displayed an MCC50 in experiment [3] of 134.3 µM.
For the molecule `CN(C)CCN1CCC(C2C3CC4CC(C3)CC2C4)C1` (stereo unspecified), the results for the MIC50 in experiment [1] and in experiment [2] were 9.4 µM (≈ 2.6 µg/mL) and 0.38 µM (≈ 0.105 µg/mL), respectively. This molecule also had an MCC50 in experiment [3] of 78.7 µM.
As to `NC12CC3CC(CC(C3)C1)C2` [AMANTADINE], the MIC50 in experiment [1] worked out at 12.8 µM (≈ 1.94 µg/mL); in experiment [2] it was 2.6 µM (≈ 0.393 µg/mL). In addition, in experiment [3], the MCC50 was more than 533.3 µM.
The corresponding values for `NC(=O)c1ncn([C@@H]2O[C@H](CO)[C@@H](O)[C@H]2O)n1` [RIBAVIRIN] are 123 µM (≈ 30 µg/mL), 615 µM (≈ 150 µg/mL) and more than 1024.6 µM.
